{"source": "patent US4604239A", "about": "“Antibiotics” (Eli Lilly and Company, priority 1985, dated 1986)", "key": {"[1]": {"tested_on": "Streptococcus sp. (Group D)", "experiment": "agar-dilution MIC", "assay_type": "cell-based", "text": "(§1) The agar-dilution procedure described by the International Collaborative study (ICS) group was used to determine the minimum inhibitory concentrations (MIC's)."}, "Bacteroides corrodens [2]": {"tested_on": "Bacteroides corrodens", "experiment": "agar-dilution MIC", "assay_type": "cell-based", "settings": "B. corrodens 1874; 24-hour; Table 12", "text": "(§2) The A41030 antibiotics, factors A, B, and C, are active against a genus of anaerobic bacteria identified as Bacteroides sp., the 24-hour MIC values being determined by the agar-dilution method, and are set forth in Table 12, which follows."}, "Bacteroides vulgatis [3]": {"tested_on": "Bacteroides vulgatis", "experiment": "agar-dilution MIC", "assay_type": "cell-based", "settings": "B. vulgatis 1563; 24-hour; Table 12", "text": "as §2"}, "[4]": {"tested_on": "Bacteroides thetaiotaomicron", "assay_type": "cell-based", "text": "as §1"}, "Propionibacterium acnes": {"tested_on": "Propionibacterium acnes", "experiment": "agar-dilution MIC", "assay_type": "cell-based", "text": "Antibiotic A41030 factors A, B and C have also been tested and found to be active against a genus of anaerobic bacteria identified as Propionibacterium acnes."}, "Clostridium perfringens": {"tested_on": "Clostridium perfringens", "assay_type": "cell-based", "settings": "Clostridium perfringens 81; Table 14"}, "Clostridium septicum": {"tested_on": "Clostridium septicum", "experiment": "agar-dilution MIC", "assay_type": "cell-based", "settings": "Clostridium septicum 1128; Table 14"}, "[5]": {"tested_on": "Peptococcus asaccharolyticus", "experiment": "agar-dilution MIC", "assay_type": "cell-based", "settings": "Table 15", "experimental": "(§3) The MIC values were determined by the agar-dilution method, and are recorded in Table 15, which follows."}, "Peptococcus constellatus": {"tested_on": "Peptococcus constellatus", "experiment": "agar-dilution MIC", "assay_type": "cell-based", "settings": "Pc. constellatus 1468; Table 15", "experimental": "as §3"}, "Peptococcus magnus": {"tested_on": "Peptococcus magnus", "experiment": "agar-dilution MIC", "assay_type": "cell-based", "settings": "Pc. magnus 1477; Table 15", "experimental": "as §3"}, "Peptococcus prevoti [6]": {"tested_on": "Peptococcus prevoti", "experiment": "agar-dilution MIC", "assay_type": "cell-based", "settings": "Table 15", "experimental": "as §3"}, "[7]": {"tested_on": "Peptostreptococcus anaerobius", "experiment": "agar-dilution MIC", "assay_type": "cell-based"}, "[8]": {"tested_on": "Bacteroides melaninogenicus", "experiment": "agar-dilution MIC", "assay_type": "cell-based", "settings": "Bacteroides melaninogenicus 2736; Table 14"}, "Fusobacterium symbiosum": {"tested_on": "Fusobacterium symbiosum", "experiment": "agar-dilution MIC", "assay_type": "cell-based", "settings": "Fusobacterium symbiosum 1470; Table 14"}, "[9]": {"tested_on": "Fusobacterium necrophorum", "experiment": "agar-dilution MIC", "assay_type": "cell-based", "settings": "Fusobacterium necrophorum 6054A; Table 14"}, "Staph. aureus": {"tested_on": "Staph. aureus", "experiment": "experimental bacterial infection in mice", "assay_type": "in vivo", "settings": "two doses subcutaneously", "experimental": "All of the A41030 factors tested have shown in vivo antimicrobial activity against experimental bacterial infections. When two doses of test compound were administered subcutaneously to mice in illustrative infections, the activity observed is measured as an ED50 value [effective dose in mg./kg. to protect fifty percent of the test animals: See Warren Wick, et al., J. Bacteriol. 81, 233-235 (1961)]."}, "S. pyogenes": {"tested_on": "S. pyogenes", "experiment": "experimental bacterial infection in mice", "assay_type": "in vivo"}, "electrometric titration": {"experiment": "electrometric titration", "assay_type": "physicochemical", "settings": "electrometric titration in 66% dimethylformamide in water", "text": "Antibiotic A41030 factor A is a white, crystalline solid."}, "solubility": {"experiment": "solubility", "assay_type": "physicochemical"}, "Bacteroides corrodens [10]": {"tested_on": "Bacteroides corrodens", "experiment": "agar-dilution MIC", "assay_type": "cell-based", "settings": "Bacteroides corrodens 1874; Table 14"}, "Bacteroides vulgatis [11]": {"tested_on": "Bacteroides vulgatis", "experiment": "agar-dilution MIC", "assay_type": "cell-based", "settings": "Bacteroides vulgatis 1211; Table 14"}, "Peptococcus prevoti [12]": {"tested_on": "Peptococcus prevoti", "experiment": "agar-dilution MIC", "assay_type": "cell-based"}}, "note": "Where two headings read alike, the source gives them in different places."}
{"smiles": "NC1C(=O)NC2Cc3ccc(c(Cl)c3)Oc3cc4cc(c3O)Oc3ccc(cc3Cl)C(O)C3NC(=O)C(NC(=O)C4NC(=O)C(NC2=O)c2cc(O)cc(c2)Oc2cc1ccc2O)c1cc(Cl)c(O)c(c1)-c1c(O)cc(O)cc1C(C(=O)O)NC3=O", "note": "(stereo not drawn) [A41030 factor A]", "values": [{"measurement": "MIC", "setting": "[1]; Streptococcus sp. (Group D) 12253F, Table 11", "result": 0.25, "unit": "µg/mL"}, {"measurement": "MIC", "setting": "[1]; Streptococcus sp. (Group D) Guze, Table 11", "result": 0.25, "unit": "µg/mL"}, {"measurement": "MIC", "setting": "[1]; Streptococcus sp. Group D 2041, end point after 24 hours, Table 18", "result": 0.5, "unit": "µg/mL"}, {"measurement": "MIC", "setting": "[1]; Streptococcus sp. Group D 2058, end point after 24 hours, Table 18", "result": 0.5, "unit": "µg/mL"}, {"measurement": "MIC", "setting": "[1]; Streptococcus sp. Group D 8043, end point after 24 hours, Table 18", "result": 0.25, "unit": "µg/mL"}, {"measurement": "MIC", "setting": "[1]; Streptococcus sp. Group D 9901, end point after 24 hours, Table 18", "result": 1, "unit": "µg/mL"}, {"measurement": "MIC", "setting": "[1]; Streptococcus sp. Group D 9960, Table 17", "result": 2, "unit": "µg/mL"}, {"measurement": "MIC", "setting": "[1]; Streptococcus sp. Group D 9960, end point after 24 hours, Table 18", "result": 0.5, "unit": "µg/mL"}, {"measurement": "MIC", "setting": "[1]; Streptococcus sp. Group D 12253F, end point after 24 hours, Table 18", "result": 0.25, "unit": "µg/mL"}, {"measurement": "MIC", "setting": "[1]; Streptococcus sp. Group D Mx161, end point after 24 hours, Table 18", "result": 0.25, "unit": "µg/mL"}, {"measurement": "MIC", "setting": "[1]; Streptococcus sp. Group D X66, Table 17", "result": 1, "unit": "µg/mL"}, {"measurement": "MIC", "setting": "[1]; Streptococcus sp. Group D X66, end point after 24 hours, Table 18", "result": 0.25, "unit": "µg/mL"}, {"measurement": "MIC", "setting": "Bacteroides corrodens [2]", "result": 32, "unit": "µg/mL"}, {"measurement": "MIC", "setting": "Bacteroides vulgatis [3]", "result": 32, "unit": "µg/mL"}, {"measurement": "MIC", "setting": "[4]; B. thetaiotaomicron 1438, 24-hour, Table 12", "result": 64, "unit": "µg/mL"}, {"measurement": "MIC", "setting": "[4]; Bacteroides thetaiotaomicron 1438, Table 14", "result": 64, "unit": "µg/mL"}, {"measurement": "MIC", "setting": "Propionibacterium acnes; P. acnes 104, 24-hour, Table 13", "result": 0.25, "unit": "µg/mL"}, {"measurement": "MIC", "setting": "Propionibacterium acnes; P. acnes 107, 24-hour, Table 13", "result": 0.06, "unit": "µg/mL"}, {"measurement": "MIC", "setting": "Propionibacterium acnes; P. acnes 5170, 24-hour, Table 13", "result": "≤ 0.03", "unit": "µg/mL"}, {"measurement": "MIC", "setting": "Propionibacterium acnes; P. acnes 5176, 24-hour, Table 13", "result": "≤ 0.03", "unit": "µg/mL"}, {"measurement": "MIC", "setting": "Propionibacterium acnes; P. acnes 5187, 24-hour, Table 13", "result": "≤ 0.03", "unit": "µg/mL"}, {"measurement": "MIC", "setting": "Propionibacterium acnes; P. acnes 5197, 24-hour, Table 13", "result": "≤ 0.03", "unit": "µg/mL"}, {"measurement": "MIC", "setting": "Propionibacterium acnes; P. acnes 5226, 24-hour, Table 13", "result": 0.5, "unit": "µg/mL"}, {"measurement": "MIC", "setting": "Propionibacterium acnes; P. acnes 5227, 24-hour, Table 13", "result": "≤ 0.03", "unit": "µg/mL"}, {"measurement": "MIC", "setting": "Propionibacterium acnes; P. acnes 5228, 24-hour, Table 13", "result": 1.0, "unit": "µg/mL"}, {"measurement": "MIC", "setting": "Propionibacterium acnes; P. acnes 5229, 24-hour, Table 13", "result": 0.5, "unit": "µg/mL"}, {"measurement": "MIC", "setting": "Propionibacterium acnes; P. acnes 5246, 24-hour, Table 13", "result": 0.06, "unit": "µg/mL"}, {"measurement": "MIC", "setting": "Propionibacterium acnes; P. acnes 5292, 24-hour, Table 13", "result": 0.06, "unit": "µg/mL"}, {"measurement": "MIC", "setting": "Propionibacterium acnes; Propionibacterium acnes 79, Table 14", "result": "≤ 0.25", "unit": "µg/mL"}, {"measurement": "MIC", "setting": "Clostridium perfringens", "result": 0.5, "unit": "µg/mL"}, {"measurement": "MIC", "setting": "Clostridium septicum", "result": 2, "unit": "µg/mL"}, {"measurement": "MIC", "setting": "[5]; Pc. asaccharolyticus 1302", "result": "≤ 0.03", "unit": "µg/mL"}, {"measurement": "MIC", "setting": "[5]; Pc. asaccharolyticus 1344", "result": 0.5, "unit": "µg/mL"}, {"measurement": "MIC", "setting": "Peptococcus constellatus", "result": 0.5, "unit": "µg/mL"}, {"measurement": "MIC", "setting": "Peptococcus magnus", "result": 0.5, "unit": "µg/mL"}, {"measurement": "MIC", "setting": "Peptococcus prevoti [6]; Pc. prevoti 1293", "result": 1.0, "unit": "µg/mL"}, {"measurement": "MIC", "setting": "Peptococcus prevoti [6]; Pc. prevoti 1407", "result": 1.0, "unit": "µg/mL"}, {"measurement": "MIC", "setting": "[7]; Peptostreptococcus anaerobius 1428, Table 14", "result": "≤ 0.25", "unit": "µg/mL"}, {"measurement": "MIC", "setting": "[7]; Ps. anaerobius 8, Table 15", "result": 0.5, "unit": "µg/mL"}, {"measurement": "MIC", "setting": "[7]; Ps. anaerobius 52, Table 15", "result": 0.5, "unit": "µg/mL"}, {"measurement": "MIC", "setting": "[7]; Ps. anaerobius 59, Table 15", "result": 0.5, "unit": "µg/mL"}, {"measurement": "MIC", "setting": "[7]; Ps. anaerobius 1418, Table 15", "result": "≤ 0.03", "unit": "µg/mL"}, {"measurement": "MIC", "setting": "[7]; Ps. anaerobius 1428, Table 15", "result": 0.5, "unit": "µg/mL"}, {"measurement": "MIC", "setting": "[7]; Ps. anaerobius 1451, Table 15", "result": 0.5, "unit": "µg/mL"}, {"measurement": "MIC", "setting": "[7]; Ps. anaerobius 1477, Table 15", "result": 0.5, "unit": "µg/mL"}, {"measurement": "MIC", "setting": "[8]", "result": 4, "unit": "µg/mL"}, {"measurement": "MIC", "setting": "Fusobacterium symbiosum", "result": 1.0, "unit": "µg/mL"}, {"measurement": "MIC", "setting": "[9]", "result": 8, "unit": "µg/mL"}, {"measurement": "ED50", "setting": "Staph. aureus", "result": 1.4, "unit": "mg/kg"}, {"measurement": "ED50", "setting": "S. pyogenes; S. pyogenes infection in mice, two doses subcutaneously", "result": 2.8, "unit": "mg/kg"}, {"measurement": "in vivo oral activity", "setting": "S. pyogenes; against S. pyogenes in mice, oral", "result": "> 300", "unit": "mg./kg. X 2"}, {"measurement": "possibly additional pKa's", "setting": "electrometric titration", "result": "> 10.5"}, {"measurement": "solubility (solvents)", "setting": "solubility", "result": "soluble in alcohol-water mixtures, in dimethylsulfoxide, in dimethylformamide, in dimethylsulfoxide-water mixtures, in dimethylformamide-water mixtures, in dilute aqueous acid, and in dilute aqueous base"}, {"measurement": "MIC", "setting": "Bacteroides corrodens [10]", "result": 64, "unit": "µg/mL"}, {"measurement": "MIC", "setting": "Bacteroides vulgatis [11]", "result": 32, "unit": "µg/mL"}, {"measurement": "MIC", "setting": "Peptococcus prevoti [12]; Pc. prevoti 1281, Table 15", "result": 0.5, "unit": "µg/mL"}, {"measurement": "MIC", "setting": "Peptococcus prevoti [12]; Peptococcus prevoti 1281, Table 14", "result": "≤ 0.25", "unit": "µg/mL"}]}
